This passage reports TGI and GI50 results from PubChem BioAssay (NCI).

Common to all, as to assay: NCI tumour cell line growth inhibition, 48 h
Assay [1] deals with NCI-H23 lung.
Assay [2] relates to T-47D breast.
Assay [3] has as its system BT-549 breast.
Assay [4] relates to A549 NSCLC.
For assay [5], the system named is 786-0 renal.
Assay [6] relates to SF-268 CNS.
Assay [7] deals with OVCAR-8 ovarian.
Assay [8] relates to NCI/ADR-RES ovarian.
Assay [9] deals with SNB-75 CNS.
Assay [10] concerns DU-145 prostate.
The test system of assay [11] is U251 CNS.
The test system of assay [12] is EKVX NSCLC.
Assay [13] relates to NCI-H460 lung.
For assay [14], the system named is ACHN renal.
Assay [15] relates to HOP-92 NSCLC.
The test system of assay [16] is RPMI-8226 leukemia.

Where “and” joins values, the source holds several entries; their conditions need not be identical. Equal entries are not always repeated.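 These data come from cells grown in 96-well plates and exposed to compound for 48 hours at five concentrations. Here, GI50 denotes the concentration required for 50% inhibition of growth. TGI marks complete inhibition of growth.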 *1 amine or outer side, *2 acyl side, *3 side chain or, on linkers, in order; H or OH if unused. Where a SMILES comes first, the peptide text is derived from it. Bridges are numbered along the chain shown (N, C = ends). Roman numbers before positions name the chains, in order. [ ]: non-standard residue; d: D form. Actinocin(1to9) = Cc1c2oc3c(C)ccc(C(=O)[*:2])c3nc-2c(C(=O)[*:1])c(N)c1=O; NMeV = CN[CH](C(=O)O)C(C)C; Sar = CNCC(=O)O

For the molecule `CN(C)CCNc1ncnc2nc(-c3ccccc3)c(-c3ccccc3)nc12`, the TGI in assay [1], in assay [2], in assay [3], in assay [4], in assay [5] and in assay [6] was above 100 µM each time. Also, the TGI in assay [7], in [8], in assay [9], in assay [10], in assay [11] and in assay [12] was above 100 µM each time.
With `CC(=O)Nc1ccc2cc(C#N)c(=O)[nH]c2n1`, the TGI in assay [1], in assay [2], in assay [3], in [13], in assay [14] and in [4] was above 100 µM throughout. The TGI in [5], in [6], in assay [7], in assay [15], in assay [8] and in [9] was above 100 µM throughout. Further, the TGI in assay [11], in assay [16] and in [12] was above 100 µM in each case.
On to `COc1ccc(NCc2cccc3c(=O)c4ccc(Cl)cc4oc23)cc1`, for which the TGI in assay [1], in [2], in [3], in assay [14], in [4] and in assay [5] was above 100 µM throughout. Further, the TGI in assay [7], in assay [15], in [8], in assay [9], in [11] and in [16] was above 100 µM each time. Moreover, the TGI in assay [12] was above 100 µM.
As for `O=C(Cn1c2ccc(Br)cc2c2nc3ccccc3nc21)NNC(=O)NC1CCCCC1`, the TGI is above 100 µM in assay [1]; above 100 µM in assay [2]; above 100 µM in assay [3]; above 100 µM in [13]; above 100 µM in assay [14]; 41.7 µM in [4]. In addition, the TGI in assay [5] was above 100 µM; in [6], above 100 µM; in assay [7], above 100 µM; in [9] it was 73.5 µM; in [10] it was 86 µM; in assay [11], above 100 µM. The TGI in [16] and in [12] was above 100 µM each time.
`COc1ccc(CC2NC(=O)C(NC(=O)c3c4nc5c(C(=O)NC6C(=O)NC(Cc7ccc(OC)cc7)C(=O)N7CCCC7C(=O)N(C)CC(=O)N(C)C(C(C)C)C(=O)OC6C)ccc(C)c5oc-4c(C)c(=O)c3N)C(C)OC(=O)C(C(C)C)N(C)C(=O)CN(C)C(=O)C3CCCN3C2=O)cc1` (configuration not stated) (I: TY(Me)P[Sar][NMeV] / II: TY(Me)P[Sar][NMeV]; ester I:1-I:C, II:1-II:C; linker I:N-II:N via Actinocin(1to9); configuration not given here): the TGI is 0.126 µM in assay [1]; 0.0705 µM in assay [2]; 0.0254 µM in assay [3]; 1.66 µM and 1.55 µM in [14]; 0.0253 µM in assay [5]; 0.118 µM and 0.526 µM in assay [6]. Also, the TGI is 0.0339 µM and 0.324 µM in [9]; 0.0843 µM in assay [10]; 3.27 µM and 0.862 µM in assay [12]. For the same molecule, the GI50 in assay [6] was below 0.001 µM; in assay [9], 0.0552 µM; in assay [12], 0.0514 µM.
In the case of `O=C(O[C@H](/C=C/c1ccccc1)P1(=O)N(Cc2ccccc2)[C@H]2CCCC[C@@H]2N1Cc1ccccc1)c1ccccc1`, the TGI in assay [1] was 48.3 µM; in assay [2], 3.86 µM; in [3], above 100 µM; in assay [13], above 100 µM; in [14], above 100 µM; in assay [4], above 100 µM. Besides, the TGI in assay [5] is above 100 µM; in assay [6], above 100 µM; in assay [7] it was above 100 µM; in [15], 5.86 µM; in [8], above 100 µM; in assay [11], 88.7 µM. Further, the TGI in assay [16] is 17.8 µM; in assay [12], above 100 µM.
As for `C=C(Cl)[C@](Cl)(CBr)CC[C@@H](Br)C(C)(C)Cl`, the TGI in assay [1] was found to be 28.5 µM; in [3], 11.7 µM; in assay [13], 2.46 µM; in assay [14] it was 2.31 µM; in assay [4], 5.49 µM; in assay [5], 0.552 µM. For the same molecule, the TGI in assay [6] was 2.18 µM; in [7], 2.86 µM; in assay [15], 1.1 µM; in assay [8] it was 4.32 µM; in assay [9], 2.09 µM; in [10] it was 2.74 µM. Besides, the TGI came to 0.335 µM in [11], 0.363 µM in [16] and 8.04 µM in [12].
Turning to `Cc1ccc(N=NC(=O)NNc2ccc(C)cc2Br)c(Br)c1`, the TGI in assay [1] is above 100 µM; in assay [2] it was above 100 µM; in assay [3], 89.3 µM; in assay [13] it was 47.3 µM; in [14] it was 89.1 µM; in assay [4], above 100 µM. The TGI in assay [5] was 42.4 µM; in assay [6], 97.2 µM; in assay [7], 62 µM; in assay [9], above 100 µM; in assay [10], 74 µM; in assay [11], 34.9 µM. Further, in assay [16], the TGI stood at 66.5 µM.
For the molecule `COC(=O)C1=C(N)C2=C(N)Oc3ccccc3C2CC1=C(C#N)C#N` (configuration not stated), the TGI was 54 µM in assay [1]; 67.1 µM in assay [2]; 58.2 µM in [3]; 72.8 µM in assay [14]; above 100 µM in assay [4]; above 100 µM in assay [5]. Also, the TGI was 89.4 µM in assay [6]; 55.7 µM in assay [7]; 47.5 µM in assay [8]; 68.6 µM in [9]; 61.9 µM in [10]; above 100 µM in assay [11]. Further, the TGI in assay [16] was found to be 48.6 µM; in [12], 84.4 µM.
With `C[Si](C)(C)CCOCN(C(=O)C1=CCC2(CC1)OCCO2)c1ccccc1I`, the TGI in assay [1] is 39 µM; in [2], above 100 µM; in assay [13] it was 61.3 µM; in [14], 44 µM; in [4], 88.2 µM; in assay [5] it was 39.8 µM. In addition, the TGI in assay [6] is 41.9 µM; in assay [7], above 100 µM; in assay [15], 22.1 µM; in assay [8], above 100 µM; in assay [9], 34.6 µM; in [10] it was above 100 µM. Further, the TGI in assay [11] was above 100 µM; in assay [16] it was 52.2 µM; in assay [12], 29.1 µM.
Turning to `CCc1n[nH]c(=O)n1-n1c(C)ccc1C`, the TGI in assay [2], in [3], in assay [13], in assay [14], in assay [4] and in assay [5] was above 100 µM in each case. Moreover, the TGI in [6], in assay [7], in assay [8], in assay [9], in [10] and in assay [11] was above 100 µM in each case. Moreover, the TGI in assay [16] and in assay [12] was above 100 µM each time.
Turning to `O=[N+]([O-])c1ccc(C2=NOC(c3ccccc3)N2C23CC4CC(CC(C4)C2)C3)cc1` (configuration not stated), the TGI in [1] was above 100 µM; in assay [2], above 100 µM; in assay [3], 46 µM; in assay [13], 47.5 µM; in assay [14] it was above 100 µM; in [4] it was 96.7 µM. The TGI in assay [5] is 57.9 µM; in assay [6], above 100 µM; in [7], 48.4 µM; in assay [8], above 100 µM; in assay [9] it was 63.7 µM; in assay [10], 95 µM. In addition, the TGI in assay [11] and in assay [12] was above 100 µM throughout.
Take `C#CCC(O)c1ccc(OC)c(OCc2ccccc2)c1` (configuration not stated): the TGI in assay [1], in assay [2], in assay [13], in assay [14], in assay [4] and in assay [5] was above 100 µM in each case. Further, the TGI in assay [6] is above 100 µM; in assay [7] it was above 100 µM; in [15], above 100 µM; in assay [8], above 100 µM; in assay [9], 78.4 µM; in assay [10], above 100 µM. The TGI in assay [11], in assay [16] and in [12] was above 100 µM in each case.
Consider `CSc1ccccc1NC1=NCCO1`, for which the TGI in assay [1], in [2], in assay [13], in assay [14], in [4] and in [5] was above 100 µM in each case. The TGI in assay [6], in assay [7], in [15], in [8], in assay [10] and in assay [11] was above 100 µM each time. The TGI in assay [16] and in assay [12] was above 100 µM each time.
As to `CCc1cccc(C(C)C)c1NC(=O)C(=O)Nn1c(=S)[nH]c2ccccc2c1=O`, the TGI in assay [1], in [2], in assay [3], in [13], in assay [14] and in assay [4] was above 100 µM throughout. For the same molecule, the TGI in assay [5], in [6], in assay [7], in assay [15], in assay [8] and in assay [9] was above 100 µM in each case. Moreover, the TGI in [11], in assay [16] and in assay [12] was above 100 µM in each case.
Consider `C#CC(O)/C=C/C(O)CCCC(O)CC#CC(O)C#CCCCCC(O)/C=C/CCCCCC(=O)CCCCCCCCCCCCCC(O)C(O)C#CC(=O)O` (configuration not stated), for which the TGI in assay [1], in assay [2], in assay [13], in assay [14], in assay [4] and in assay [5] was above 25 µM throughout. Besides, the TGI in assay [6], in [7], in assay [15], in [8], in assay [9] and in assay [10] was above 25 µM each time. Besides, the TGI in assay [11], in [16] and in assay [12] was above 25 µM in each case.
Consider `COC(=O)c1ccccc1/C=C1\Cc2ccc3c(c2C1=O)CCC3`, for which the TGI in assay [1], in assay [2], in assay [13], in [14], in assay [4] and in assay [5] was above 100 µM in each case. In addition, the TGI in assay [6], in assay [7], in assay [15], in [8], in assay [9] and in assay [10] was above 100 µM each time. For the same molecule, the TGI in assay [11], in assay [16] and in assay [12] was above 100 µM throughout.
As to `OC(Cc1cnnc2ccccc12)C(Cl)(Cl)Cl` (configuration not stated), the TGI in assay [1], in assay [2], in [13], in assay [14], in assay [4] and in [5] was above 10 µM in each case. The TGI in assay [6], in assay [7], in assay [15], in assay [8], in assay [9] and in [10] was above 10 µM each time. For the same molecule, the TGI in [11], in [16] and in assay [12] was above 10 µM each time.
`O=[N+]([O-])c1ccccc1S(=O)(=O)c1cccc2c1NCCC2`: the TGI in assay [3], in [13], in assay [14], in assay [4], in assay [5] and in assay [6] was above 100 µM throughout. In addition, the TGI in [7], in assay [15], in [8], in [9], in assay [10] and in [16] was above 100 µM each time. The molecule further displayed a TGI in [12] above 100 µM.
